Earlier results in patent US11103497B2, “Treatment of imatinib resistant leukemia” (Wyeth LLC, priority 2007, dated 2021).

Experiments:
CML tumors = conditions: nude mice; cited from earlier work
chronic myeloid leukemia = conditions: patients with chronic myeloid leukemia; cited from earlier work
CML cells = conditions: in culture; cited from earlier work
BcrAbl T315I = conditions: patients with amino acid mutation T315I in BcrAbl; cited from earlier work

Structure (SMILES)	regression of CML tumors (CML tumors)	5-year survival rate (chronic myeloid leukemia) [%]	toxicity to CML cells (CML cells)	effectiveness against CML (BcrAbl T315I)
Cc1ccc(NC(=O)c2ccc(CN3CCN(C)CC3)cc2)cc1Nc1nccc(-c2cccnc2)n1 [Imatinib]	causes regression	~90	toxic	
Cc1cn(-c2cc(NC(=O)c3ccc(C)c(Nc4nccc(-c5cccnc5)n4)c3)cc(C(F)(F)F)c2)cn1 [nilotinob]				not effective
